Where two headings read alike, the source gives them in different places.
Key:
[1] = target: rat mGlu3 (Rattus norvegicus (Rat), UniProt P31422); assay: mGlu3 Ca2+ flux assay; format: cell-based; conditions: for remaining activity at 30 µM: amplitude of response at 30 μM test compound as % of maximal response to glutamate, read-out: rat mGlu3 Glu max (%); for IC50: read-out: rat mGlu3 IC50
Method: (§1) The cells were grown overnight at 37° C. in the presence of 5% CO2. […] Dye was removed, 20 μL of assay buffer was added, and the plate was incubated for 10 minutes at room temperature. Ca^2+ flux was measured using the Functional Drug Screening System (FDSS7000, Hamamatsu, Japan). […] All test compounds were dissolved and diluted to a concentration of 10 mM in 100% DMSO. […] Calcium fluorescence measures were recorded as fold over basal fluorescence; raw data was then normalized to the maximal response to glutamate. […] The raw data file containing all time points was used as the data source in the analysis template. This was saved by the FDSS as a tab-delimited text file. Data were normalized using a static ratio function (F/F0) for each measurement of the total 360 values per well divided by each well's initial value. […] This is sufficient time to capture the peak amplitude of the cellular calcium response. […] EC50 values for test compounds were generated by fitting the normalized values versus the log of the test compound concentration (in mol/L) using a 4 parameter logistic equation where none of the parameters were fixed. Each of the three values collected at each concentration of test compound were weighted evenly.

[2] = target: rat mGlu5 (Rattus norvegicus (Rat), UniProt P31424); assay: mGlu5 Ca2+ flux assay; format: cell-based; conditions: for Fold selectivity (mGlu3 vs. mGlu5): ratio of rat mGlu5 EC50 or IC50 to rat mGlu3 IC50; for EC50: read-out: rat mGlu5 EC50 or IC50; for Emax at 30 µM: PAM, amplitude of response at 30 μM test compound as % of maximal response to glutamate, read-out: rat mGlu5 Glu max (%)
Chain of rat mGlu5 (P31424 21-1203): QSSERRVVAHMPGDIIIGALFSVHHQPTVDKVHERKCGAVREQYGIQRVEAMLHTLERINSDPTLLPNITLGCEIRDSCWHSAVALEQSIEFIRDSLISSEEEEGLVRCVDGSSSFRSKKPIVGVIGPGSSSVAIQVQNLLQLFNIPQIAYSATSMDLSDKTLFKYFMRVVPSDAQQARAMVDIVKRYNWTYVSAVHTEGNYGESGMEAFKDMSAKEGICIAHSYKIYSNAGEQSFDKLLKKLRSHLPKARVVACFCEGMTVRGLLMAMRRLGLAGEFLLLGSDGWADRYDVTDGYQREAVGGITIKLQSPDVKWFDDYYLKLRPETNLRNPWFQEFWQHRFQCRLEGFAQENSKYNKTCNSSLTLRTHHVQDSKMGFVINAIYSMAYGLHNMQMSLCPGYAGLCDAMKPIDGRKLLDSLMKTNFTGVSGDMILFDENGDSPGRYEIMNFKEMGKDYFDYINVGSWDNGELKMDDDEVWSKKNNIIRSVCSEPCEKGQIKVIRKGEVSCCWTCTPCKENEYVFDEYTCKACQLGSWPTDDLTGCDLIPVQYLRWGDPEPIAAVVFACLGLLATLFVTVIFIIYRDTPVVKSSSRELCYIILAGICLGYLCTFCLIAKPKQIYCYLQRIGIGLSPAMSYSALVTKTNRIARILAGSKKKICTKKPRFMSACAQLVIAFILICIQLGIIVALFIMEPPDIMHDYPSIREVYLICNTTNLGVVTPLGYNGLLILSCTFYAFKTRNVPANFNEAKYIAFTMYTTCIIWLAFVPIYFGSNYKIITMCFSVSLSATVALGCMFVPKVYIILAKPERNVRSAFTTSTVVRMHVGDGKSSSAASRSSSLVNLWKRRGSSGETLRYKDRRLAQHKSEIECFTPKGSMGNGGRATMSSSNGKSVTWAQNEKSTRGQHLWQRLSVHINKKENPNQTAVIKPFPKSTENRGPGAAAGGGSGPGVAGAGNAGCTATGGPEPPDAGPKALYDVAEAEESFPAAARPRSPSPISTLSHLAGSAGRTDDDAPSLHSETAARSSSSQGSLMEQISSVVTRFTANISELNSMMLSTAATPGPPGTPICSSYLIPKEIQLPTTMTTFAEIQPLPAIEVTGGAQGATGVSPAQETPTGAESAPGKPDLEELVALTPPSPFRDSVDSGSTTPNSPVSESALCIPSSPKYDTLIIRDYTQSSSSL
Method: as §1, with “for 5” for “for 10”

[3] = NAM potency, decrease of glutamate EC80 response, >30,000 = no measurable activity, >10,000 = no plateau

Chain of rat mGlu3 (P31422 23-879): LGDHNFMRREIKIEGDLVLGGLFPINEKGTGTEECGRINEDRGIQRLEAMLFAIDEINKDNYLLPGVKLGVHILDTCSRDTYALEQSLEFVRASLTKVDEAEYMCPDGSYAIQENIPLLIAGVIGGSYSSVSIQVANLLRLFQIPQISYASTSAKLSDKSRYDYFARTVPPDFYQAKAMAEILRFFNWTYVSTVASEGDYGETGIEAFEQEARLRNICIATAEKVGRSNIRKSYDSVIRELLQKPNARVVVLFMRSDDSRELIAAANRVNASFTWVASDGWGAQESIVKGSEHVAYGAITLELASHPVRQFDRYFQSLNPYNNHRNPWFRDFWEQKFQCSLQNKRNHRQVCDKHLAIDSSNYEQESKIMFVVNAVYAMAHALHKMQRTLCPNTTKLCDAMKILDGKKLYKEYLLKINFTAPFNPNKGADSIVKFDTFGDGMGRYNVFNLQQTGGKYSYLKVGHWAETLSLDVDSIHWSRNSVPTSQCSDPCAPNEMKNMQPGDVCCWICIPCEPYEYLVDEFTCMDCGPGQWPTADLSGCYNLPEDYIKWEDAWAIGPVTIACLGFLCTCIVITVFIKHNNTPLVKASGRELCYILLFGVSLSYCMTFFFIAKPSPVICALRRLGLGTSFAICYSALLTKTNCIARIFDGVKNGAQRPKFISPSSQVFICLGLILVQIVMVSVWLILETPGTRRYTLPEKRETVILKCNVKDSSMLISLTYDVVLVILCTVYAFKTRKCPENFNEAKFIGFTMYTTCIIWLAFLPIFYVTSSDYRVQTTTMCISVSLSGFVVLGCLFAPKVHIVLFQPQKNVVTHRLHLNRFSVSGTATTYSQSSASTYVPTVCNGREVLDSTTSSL

Row | Structure (SMILES) | remaining activity at 30 µM [1] | IC50 [1] | Fold selectivity (mGlu3 vs. mGlu5) [2] | EC50 [2] | IC50 [1, 3] | Emax at 30 µM [2]
1 | CC(C)c1ccc(NCc2cc3n(n2)CCN(c2ccc(F)cc2)C3=O)cc1 [Compound 23, 5-(4-fluorophenyl)-2-(((4-isopropylphenyl)amino)methyl)-6,7-dihydropyrazolo[1,5-a]pyrazin-4(5H)-one] | 28.9% | > 10000 nM | >3 | > 30000 nM | – | –
2 | CS(=O)(=O)c1ccc(NCc2cc3n(n2)CCN(c2ccc(F)cc2)C3=O)cc1 [Compound 25, 5-(4-fluorophenyl)-2-(((4-(methylsulfonyl)phenyl)amino)methyl)-6,7-dihydropyrazolo[1,5-a]pyrazin-4(5H)-one] | 66.9% | > 10000 nM | >3 | > 30000 nM | – | –
3 | O=C1c2cc(CNc3cccc(F)c3F)nn2CCN1c1ccc(F)cc1 [Compound 27, 2-(((2,3-difluorophenyl)amino)methyl)-5-(4-fluorophenyl)-6,7-dihydropyrazolo[1,5-a]pyrazin-4(5H)-one] | 2.82% | – | 4.06 | 2380 nM | 586 nM | 90.8%
4 | O=C1c2cc(CNc3ccc(F)cc3F)nn2CCN1c1ccc(F)cc1 [Compound 28, 2-(((2,4-difluorophenyl)amino)methyl)-5-(4-fluorophenyl)-6,7-dihydropyrazolo[1,5-a]pyrazin-4(5H)-one] | 1.76% | – | 1.21 | 1510 nM | 1250 nM | 80.6%
5 | O=C1c2cc(CNc3cc(F)ccc3F)nn2CCN1c1ccc(F)cc1 [Compound 29, 2-(((2,5-difluorophenyl)amino)methyl)-5-(4-fluorophenyl)-6,7-dihydropyrazolo[1,5-a]pyrazin-4(5H)-one] | 2.45% | – | 3.23 | 1640 nM | 508 nM | 87.5%
6 | O=C1c2cc(CNc3cc(F)cc(F)c3)nn2CCN1c1ccc(F)cc1 [Compound 30, 2-(((3,5-difluorophenyl)amino)methyl)-5-(4-fluorophenyl)-6,7-dihydropyrazolo[1,5-a]pyrazin-4(5H)-one] | 2.71% | – | 8.73 | 6440 nM | 738 nM | 102%
7 | O=C1c2cc(CNc3ccc(F)c(F)c3)nn2CCN1c1ccc(F)cc1 [Compound 31, 2-(((3,4-difluorophenyl)amino)methyl)-5-(4-fluorophenyl)-6,7-dihydropyrazolo[1,5-a]pyrazin-4(5H)-one] | 2.02% | – | 5.37 | 2480 nM | 462 nM | 75.8%
8 | O=C1c2cc(CNc3c(F)cccc3F)nn2CCN1c1ccc(F)cc1 [Compound 32, 2-(((2,6-difluorophenyl)amino)methyl)-5-(4-fluorophenyl)-6,7-dihydropyrazolo[1,5-a]pyrazin-4(5H)-one] | 1.25% | – | 8.41 | 8830 nM | 1050 nM | 84.1%
9 | O=C1c2cc(CNc3c(F)cc(F)cc3F)nn2CCN1c1ccc(F)cc1 [Compound 33, 5-(4-fluorophenyl)-2-(((2,4,6-trifluorophenyl)amino)methyl)-6,7-dihydropyrazolo[1,5-a]pyrazin-4(5H)-one] | 1.82% | – | 0.87 | 1110 nM | 1270 nM | 89.7%
10 | O=C1c2cc(CNc3ccc(Cl)cc3F)nn2CCN1c1ccc(F)cc1 [Compound 34, 2-(((4-chloro-2-fluorophenyl)amino)methyl)-5-(4-fluorophenyl)-6,7-dihydropyrazolo[1,5-a]pyrazin-4(5H)-one] | 3.18% | – | >35 | > 30000 nM | 856 nM | –

From patent US9676782B2, “Substituted pyrazolo[1,5-a]pyrazines as negative allosteric modulators of metabotropic glutamate receptor 3” (Vanderbilt University, priority 2014, dated 2017)
